Measurements from patent US9062124B2, “GIP-based mixed agonists for treatment of metabolic disorders and obesity” (priority 2008, dated 2015).
Where a SMILES comes first, the peptide text is derived from it. Bridges are numbered along the chain shown (N, C = ends). Where no end group is shown, it is not given here. Side-chain parts run from the residue outwards. [ ]: non-standard residue; d: D form. The star is where a group is joined. Ac‑Cys(PEG 40 kDa) = Cys whose alpha-amino group is acetylated and whose side chain carries a 40 kDa PEG; Myristoyl = CCCCCCCCCCCCCC(=O)*; Aib = CC(C)(N)C(=O)O

Columns and labels:
Format in all cases: cell-based
GLP-1 receptor = target: T1, GLP-1 receptor (Homo sapiens, UniProt P43220); test: cAMP synthesis functional assay (firefly luciferase reporter in HEK293 cells), GLP-1 receptor; details: for EC50: GLP-1 Receptor EC50, cAMP luciferase reporter assay as in Example 16
T1 construct: expressed in transfected cells; host or cells: HEK293

glucagon receptor = target: T2, glucagon receptor (Homo sapiens, UniProt P47871); test: cAMP synthesis functional assay (firefly luciferase reporter in HEK293 cells), glucagon receptor; details: for EC50: Glucagon Receptor EC50, cAMP luciferase reporter assay as in Example 16
T2 construct: expressed in transfected cells; host or cells: HEK293

GIP receptor = target: T3, GIP receptor (Homo sapiens, UniProt P48546); test: cAMP synthesis functional assay (firefly luciferase reporter in HEK293 cells), GIP receptor
T3 construct: expressed in transfected cells; host or cells: HEK293
T3 sequence (P48546 22-466): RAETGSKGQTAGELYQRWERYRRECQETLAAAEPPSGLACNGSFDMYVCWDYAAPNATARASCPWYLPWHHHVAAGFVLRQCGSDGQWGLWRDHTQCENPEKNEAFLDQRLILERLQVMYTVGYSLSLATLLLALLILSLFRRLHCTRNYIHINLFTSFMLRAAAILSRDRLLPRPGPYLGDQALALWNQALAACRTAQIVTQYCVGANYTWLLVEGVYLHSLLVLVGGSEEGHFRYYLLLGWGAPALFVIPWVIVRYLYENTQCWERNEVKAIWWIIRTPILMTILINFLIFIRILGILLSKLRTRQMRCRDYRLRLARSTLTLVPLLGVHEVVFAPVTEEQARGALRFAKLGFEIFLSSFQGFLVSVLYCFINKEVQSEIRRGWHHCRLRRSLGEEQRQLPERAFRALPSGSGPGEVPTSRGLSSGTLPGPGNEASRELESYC

[1] = Table 1, relative to the native hormone of the indicated receptor
[2] = relative to the standard (Std.) EC50 of the same run
[3] = Table 4, relative to the native hormone

T2 sequence (P47871 26-477): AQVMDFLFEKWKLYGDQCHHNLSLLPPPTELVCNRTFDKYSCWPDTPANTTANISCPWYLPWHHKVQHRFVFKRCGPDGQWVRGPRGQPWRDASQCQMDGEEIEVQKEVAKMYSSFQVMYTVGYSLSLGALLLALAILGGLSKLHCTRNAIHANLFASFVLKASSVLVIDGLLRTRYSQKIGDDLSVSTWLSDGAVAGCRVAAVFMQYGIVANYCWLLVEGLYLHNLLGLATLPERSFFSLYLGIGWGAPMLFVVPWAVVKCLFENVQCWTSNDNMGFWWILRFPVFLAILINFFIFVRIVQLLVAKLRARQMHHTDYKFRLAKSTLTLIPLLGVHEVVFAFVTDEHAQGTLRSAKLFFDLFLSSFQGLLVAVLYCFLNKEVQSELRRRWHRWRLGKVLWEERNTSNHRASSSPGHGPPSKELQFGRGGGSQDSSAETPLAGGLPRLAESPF
T1 sequence (P43220 24-463, species assumed): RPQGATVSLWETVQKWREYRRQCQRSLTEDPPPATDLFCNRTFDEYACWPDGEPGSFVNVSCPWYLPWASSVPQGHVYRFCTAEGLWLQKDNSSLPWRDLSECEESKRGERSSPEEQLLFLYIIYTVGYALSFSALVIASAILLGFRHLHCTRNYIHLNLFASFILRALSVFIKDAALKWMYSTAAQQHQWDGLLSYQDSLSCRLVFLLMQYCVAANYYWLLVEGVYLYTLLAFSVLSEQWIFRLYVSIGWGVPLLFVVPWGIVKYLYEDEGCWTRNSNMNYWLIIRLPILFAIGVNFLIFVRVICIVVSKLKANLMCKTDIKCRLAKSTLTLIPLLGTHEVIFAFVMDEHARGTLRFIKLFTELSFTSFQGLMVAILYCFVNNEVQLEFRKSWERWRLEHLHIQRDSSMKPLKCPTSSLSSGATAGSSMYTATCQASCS

GLP-1 Receptor relative activity (GLP-1 receptor; [1]) [%] | Glucagon Receptor relative activity (glucagon receptor; [1]) [%] | GIP Receptor relative activity (GIP receptor; [1]) [%] | Molecule | other results
0.78 | 76.92 | 6.99 | CC[C@H](C)[C@@H]1NC(=O)[C@@H](NC(=O)[C@H](CC(=O)O)NC(=O)[C@H](CC(C)C)NC(=O)[C@H](Cc2ccc(O)cc2)NC(=O)[C@H](CCCCN)NC(=O)[C@H](CO)NC(=O)[C@H](Cc2ccc(O)cc2)NC(=O)[C@H](CC(=O)O)NC(=O)[C@H](CO)NC(=O)[C@@H](NC(=O)[C@H](Cc2ccccc2)NC(=O)[C@@H](NC(=O)CNC(=O)[C@H](CCC(N)=O)NC(=O)[C@H](CO)NC(=O)[C@@H](N)Cc2ccc(O)cc2)[C@@H](C)O)[C@@H](C)O)CCC(=O)NCCCC[C@@H](C(=O)N[C@@H](CC(=O)O)C(=O)N[C@@H](Cc2ccccc2)C(=O)N[C@H](C(=O)N[C@@H](CC(N)=O)C(=O)N[C@@H](Cc2c[nH]c3ccccc23)C(=O)N[C@@H](CC(C)C)C(=O)N[C@@H](CC(C)C)C(=O)N[C@@H](C)C(=O)N[C@@H](CCC(N)=O)C(N)=O)C(C)C)NC(=O)[C@H](CCC(N)=O)NC(=O)[C@H](Cc2c[nH]cn2)NC1=O [mt-109] (H-YSQGTFTSDYSKYLDEIHQKDFVNWLLAQ-NH2; lactam 16-20; N-terminus assumed) | 
1.42 | 0.01 | 25.00 | CC[C@H](C)[C@H](NC(=O)[C@H](CO)NC(=O)[C@H](Cc1ccc(O)cc1)NC(=O)[C@H](CC(=O)O)NC(=O)[C@H](CO)NC(=O)[C@@H](NC(=O)[C@H](Cc1ccccc1)NC(=O)[C@@H](NC(=O)CNC(=O)[C@H](CCC(=O)O)NC(=O)[C@H](C)NC(=O)[C@@H](N)Cc1ccc(O)cc1)[C@@H](C)O)[C@@H](C)O)C(=O)N[C@@H](Cc1ccc(O)cc1)C(=O)N[C@@H](CCSC)C(=O)N[C@@H](CC(=O)O)C(=O)N[C@H]1CCC(=O)NCCCC[C@@H](C(=O)N[C@@H](CC(=O)O)C(=O)N[C@@H](Cc2ccccc2)C(=O)N[C@H](C(=O)N[C@@H](CC(N)=O)C(=O)N[C@@H](Cc2c[nH]c3ccccc23)C(=O)N[C@@H](CC(C)C)C(=O)N[C@@H](CC(C)C)C(=O)N[C@@H](C)C(=O)N[C@@H](CCC(N)=O)C(N)=O)C(C)C)NC(=O)[C@H](CCC(N)=O)NC(=O)[C@H](Cc2c[nH]cn2)NC(=O)[C@H]([C@@H](C)CC)NC1=O [mt-98] (H-YAEGTFTSDYSIYMDEIHQKDFVNWLLAQ-NH2; lactam 16-20; N-terminus assumed) | 

Further lines, the molecule ahead of its results:

Molecule | GLP-1 Receptor relative activity (GLP-1 receptor; [1]) [%] | Glucagon Receptor relative activity (glucagon receptor; [1]) [%] | GIP Receptor relative activity (GIP receptor; [1]) [%] | other results
CCCCCCCCCCCCCC(=O)NCCCC[C@H](NC(=O)[C@H](CC(=O)O)NC(=O)[C@H](CO)NC(=O)[C@@H](NC(=O)[C@H](Cc1ccccc1)NC(=O)[C@@H](NC(=O)CNC(=O)[C@H](CCC(=O)O)NC(=O)C(C)(C)NC(=O)[C@@H](N)Cc1ccc(O)cc1)[C@@H](C)O)[C@@H](C)O)C(=O)N[C@@H](CO)C(=O)N[C@H](C(=O)N[C@@H](Cc1ccc(O)cc1)C(=O)N[C@@H](CC(C)C)C(=O)N[C@@H](CC(=O)O)C(=O)N[C@@H](CCCCN)C(=O)N[C@@H](CCC(N)=O)C(=O)N[C@@H](C)C(=O)N[C@@H](C)C(=O)NC(C)(C)C(=O)N[C@@H](CCC(=O)O)C(=O)N[C@@H](Cc1ccccc1)C(=O)N[C@H](C(=O)N[C@@H](CC(N)=O)C(=O)N[C@@H](Cc1c[nH]c2ccccc12)C(=O)N[C@@H](CC(C)C)C(=O)N[C@@H](CC(C)C)C(=O)N[C@@H](C)C(=O)NCC(N)=O)C(C)C)[C@@H](C)CC [mt-282] (H-Y[Aib]EGTFTSDK(Myristoyl)SIYLDKQAA[Aib]EFVNWLLAG-NH2; N-terminus assumed) |  |  |  | EC50 (GLP-1 receptor): 0.0134 nM; GLP-1 Receptor relative activity (GLP-1 receptor; [2]): 44.03%; EC50 (glucagon receptor): 2.44 nM; Glucagon Receptor relative activity (glucagon receptor; [2]): 1.18%; GIP Receptor relative activity (GIP receptor; [2]): 76.69%
CCCCCCCCCCCCCC(=O)NCCCC[C@@H](NC(=O)[C@H](CO)NC(=O)[C@@H]1CCCN1C(=O)[C@@H]1CCCN1C(=O)[C@@H]1CCCN1C(=O)[C@H](C)NC(=O)CNC(=O)[C@H](CO)NC(=O)[C@H](CO)NC(=O)[C@@H]1CCCN1C(=O)CNC(=O)CNC(=O)[C@H](C)NC(=O)[C@H](CC(C)C)NC(=O)[C@H](CC(C)C)NC(=O)[C@H](Cc1c[nH]c2ccccc12)NC(=O)[C@H](CS)NC(=O)[C@@H](NC(=O)[C@H](Cc1ccccc1)NC(=O)[C@H](CCC(=O)O)NC(=O)C(C)(C)NC(=O)[C@H](C)NC(=O)[C@H](C)NC(=O)[C@H](CCC(N)=O)NC(=O)[C@H](CCCCN)NC(=O)[C@H](CC(=O)O)NC(=O)[C@H](CC(C)C)NC(=O)[C@H](Cc1ccc(O)cc1)NC(=O)[C@@H](NC(=O)[C@H](CO)NC(=O)[C@H](Cc1ccc(O)cc1)NC(=O)[C@H](CC(=O)O)NC(=O)[C@H](CO)NC(=O)[C@@H](NC(=O)[C@H](Cc1ccccc1)NC(=O)[C@@H](NC(=O)CNC(=O)[C@H](CCC(=O)O)NC(=O)C(C)(C)NC(=O)[C@@H](N)Cc1ccc(O)cc1)[C@@H](C)O)[C@@H](C)O)[C@@H](C)CC)C(C)C)C(N)=O [mt-333] |  |  |  | EC50 (GLP-1 receptor): 0.0028 nM; GLP-1 Receptor relative activity (GLP-1 receptor; [2]): 85.71%; EC50 (glucagon receptor): 0.691 nM; Glucagon Receptor relative activity (glucagon receptor; [2]): 2.80%; EC50 (GIP receptor; GIP Receptor EC50, cAMP luciferase reporter assay as in Example 16): 0.0034 nM; GIP Receptor relative activity (GIP receptor; [2]): 226.47%
mt-225: pegylated monomer with lactam bridge between Glu16 and Lys20, PEG attached via dipeptide spacer (Y[Aib]QGTFTSDYSIYLDEQAAKEFVNWLLAGGPSSGAPPPSK([Ala-Ac‑Cys(PEG 40 kDa)])-NH2; lactam 16-20) |  |  |  | GLP-1 Receptor relative activity (GLP-1 receptor; [3]): 29.59%; Glucagon Receptor relative activity (glucagon receptor; [3]): 1.99%; GIP Receptor relative activity (GIP receptor; [3]): 0.90%
CC[C@H](C)[C@@H]1NC(=O)[C@@H](NC(=O)[C@H](CC(=O)O)NC(=O)[C@H](CC(C)C)NC(=O)[C@H](Cc2ccc(O)cc2)NC(=O)[C@H](CCCCN)NC(=O)[C@H](CO)NC(=O)[C@H](Cc2ccc(O)cc2)NC(=O)[C@H](CC(=O)O)NC(=O)[C@H](CO)NC(=O)[C@@H](NC(=O)[C@H](Cc2ccccc2)NC(=O)[C@@H](NC(=O)CNC(=O)[C@H](CCC(N)=O)NC(=O)[C@H](CO)NC(=O)[C@@H](N)Cc2c[nH]cn2)[C@@H](C)O)[C@@H](C)O)CCC(=O)NCCCC[C@@H](C(=O)N[C@@H](CC(=O)O)C(=O)N[C@@H](Cc2ccccc2)C(=O)N[C@H](C(=O)N[C@@H](CC(N)=O)C(=O)N[C@@H](Cc2c[nH]c3ccccc23)C(=O)N[C@@H](CC(C)C)C(=O)N[C@@H](CC(C)C)C(=O)N[C@@H](C)C(=O)NCC(=O)NCC(=O)N2CCC[C@H]2C(=O)N[C@@H](CO)C(=O)N[C@@H](CO)C(=O)NCC(=O)N[C@@H](C)C(=O)N2CCC[C@H]2C(=O)N2CCC[C@H]2C(=O)N2CCC[C@H]2C(=O)N[C@@H](CO)C(N)=O)C(C)C)NC(=O)[C@H](CCC(N)=O)NC(=O)[C@H](Cc2c[nH]cn2)NC1=O [mt-115] (H-HSQGTFTSDYSKYLDEIHQKDFVNWLLAGGPSSGAPPPS-NH2; lactam 16-20; N-terminus assumed) | 20.00 | 11.36 | 1.31 | 
Y[Aib]EGTFTSDYSIYLDEQAAKEFVNWLLAGKGKKNWLKHNITQC-NH2 (lactam 16-20) [mt-206] | 32.63 | 0.01 | 13.04 | 
CC(C)C[C@H](NC(=O)[C@H](CC(C)C)NC(=O)[C@H](Cc1c[nH]c2ccccc12)NC(=O)[C@H](CC(N)=O)NC(=O)[C@@H](NC(=O)[C@H](Cc1ccccc1)NC(=O)[C@H](CCC(=O)O)NC(=O)[C@@H]1CCCCNC(=O)CC[C@H](NC(=O)[C@H](CC(=O)O)NC(=O)[C@H](CC(C)C)NC(=O)[C@H](Cc2ccc(O)cc2)NC(=O)[C@H](CCCCN)NC(=O)[C@H](CO)NC(=O)[C@H](Cc2ccc(O)cc2)NC(=O)[C@H](CC(=O)O)NC(=O)[C@H](CO)NC(=O)[C@@H](NC(=O)[C@H](Cc2ccccc2)NC(=O)[C@@H](NC(=O)CNC(=O)[C@H](CCC(N)=O)NC(=O)[C@H](CO)NC(=O)[C@@H](N)Cc2ccc(O)cc2)[C@@H](C)O)[C@@H](C)O)C(=O)N[C@@H](CCCNC(=N)N)C(=O)N[C@@H](CCCNC(=N)N)C(=O)N[C@@H](C)C(=O)N1)C(C)C)C(=O)N[C@@H](C)C(=O)NCC(=O)NCC(=O)N1CCC[C@H]1C(=O)N[C@@H](CO)C(=O)N[C@@H](CO)C(=O)NCC(=O)N[C@@H](C)C(=O)N1CCC[C@H]1C(=O)N1CCC[C@H]1C(=O)N1CCC[C@H]1C(=O)N[C@@H](CO)C(N)=O [mt-143] (H-YSQGTFTSDYSKYLDERRAKEFVNWLLAGGPSSGAPPPS-NH2; lactam 16-20; N-terminus assumed) | 4.53 | 496.51 | 1.82 | 
